Assay [1] has as its target α1β2P206Cγ2 GABAR (Rattus norvegicus, UniProt P18508+P62813+P63138, P230C). Description: Two-electrode voltage clamp of GABA-gated current in Xenopus oocytes. Format: cell-based. As to conditions: 100nM DMCM, saturating. (Two-electrode voltage clamp is typically applied to oocytes expressing channels or transporters.)
The target of assay [2] is wild-type α1β2γ2 GABAR (Rattus norvegicus, UniProt P18508+P62813+P63138). As to conditions: WT GABARs; DMCM; ref Boileau and Czajkowski, 1999; Hanson and Czajkowski, 2008; cited from earlier work.
wild-type α1β2γ2 GABAR, sequence (P62813 28-455): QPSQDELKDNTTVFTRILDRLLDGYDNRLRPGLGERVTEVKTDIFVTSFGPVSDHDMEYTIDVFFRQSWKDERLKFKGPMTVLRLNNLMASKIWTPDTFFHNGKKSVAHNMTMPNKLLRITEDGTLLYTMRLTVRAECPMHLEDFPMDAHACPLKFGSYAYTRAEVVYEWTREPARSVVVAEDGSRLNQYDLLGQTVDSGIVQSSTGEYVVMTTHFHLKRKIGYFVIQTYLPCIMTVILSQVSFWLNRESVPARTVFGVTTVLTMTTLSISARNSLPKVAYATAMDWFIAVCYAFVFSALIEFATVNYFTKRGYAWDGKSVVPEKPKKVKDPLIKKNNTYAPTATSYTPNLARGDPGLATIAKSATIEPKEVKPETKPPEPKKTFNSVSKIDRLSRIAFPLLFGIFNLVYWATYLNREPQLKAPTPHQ
wild-type α1β2γ2 GABAR, sequence (P63138 25-474 limits assumed): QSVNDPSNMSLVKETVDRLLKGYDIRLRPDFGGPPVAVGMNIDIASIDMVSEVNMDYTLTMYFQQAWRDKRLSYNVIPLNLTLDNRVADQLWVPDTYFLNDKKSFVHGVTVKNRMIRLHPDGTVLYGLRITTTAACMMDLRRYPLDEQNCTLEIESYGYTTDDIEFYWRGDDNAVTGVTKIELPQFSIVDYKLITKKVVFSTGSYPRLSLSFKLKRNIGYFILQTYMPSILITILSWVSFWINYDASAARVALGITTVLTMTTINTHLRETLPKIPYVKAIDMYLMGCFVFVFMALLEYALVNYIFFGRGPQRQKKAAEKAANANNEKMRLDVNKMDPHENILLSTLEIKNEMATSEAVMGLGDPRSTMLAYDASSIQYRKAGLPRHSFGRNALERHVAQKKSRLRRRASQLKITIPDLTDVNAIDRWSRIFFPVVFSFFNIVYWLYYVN
wild-type α1β2γ2 GABAR, sequence (P18508 39-466): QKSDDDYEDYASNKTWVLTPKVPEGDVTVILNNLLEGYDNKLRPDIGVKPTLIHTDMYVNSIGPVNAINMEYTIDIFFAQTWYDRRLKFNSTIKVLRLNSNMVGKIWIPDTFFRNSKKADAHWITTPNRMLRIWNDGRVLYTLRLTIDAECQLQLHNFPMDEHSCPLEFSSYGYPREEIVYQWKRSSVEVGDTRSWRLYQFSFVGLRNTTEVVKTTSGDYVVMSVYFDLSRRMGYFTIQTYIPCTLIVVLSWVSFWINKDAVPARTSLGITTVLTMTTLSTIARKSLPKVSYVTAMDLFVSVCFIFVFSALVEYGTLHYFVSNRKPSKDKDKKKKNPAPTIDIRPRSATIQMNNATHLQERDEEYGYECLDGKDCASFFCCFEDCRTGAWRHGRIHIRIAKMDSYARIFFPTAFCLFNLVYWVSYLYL
The target in assay [3] is α1E122Cβ2γ2 GABAR (Rattus norvegicus, UniProt P18508+P62813+P63138, E149C). Description: Two-electrode voltage clamp of GABA-gated current in Xenopus oocytes. Format: cell-based.
α1E122Cβ2γ2 GABAR, sequence (P62813 28-455 E149C): as the sequence (P62813 28-455) above, with E122C counted along it
α1E122Cβ2γ2 GABAR, sequence (P63138 25-474 limits assumed): as the sequence (P63138 25-474 limits assumed) above
α1E122Cβ2γ2 GABAR, sequence (P18508 39-466): as the sequence (P18508 39-466) above
The target of assay [4] is α1R131Cβ2γ2 GABAR (Rattus norvegicus, UniProt P18508+P62813+P63138, R158C). The assay is described as above. Format: cell-based. The following applies: 1μM flumazenil.
α1R131Cβ2γ2 GABAR, sequence (P62813 28-455 R158C): as the sequence (P62813 28-455) above, with R131C counted along it
α1R131Cβ2γ2 GABAR, sequence (P63138 25-474 limits assumed): as the sequence (P63138 25-474 limits assumed) above
α1R131Cβ2γ2 GABAR, sequence (P18508 39-466): as the sequence (P18508 39-466) above

The structures appear in SMILES notation.

α1β2P206Cγ2 GABAR, sequence (P62813 28-455): as the sequence (P62813 28-455) above
α1β2P206Cγ2 GABAR, sequence (P63138 25-474 P230C limits assumed): as the sequence (P63138 25-474 limits assumed) above, with P206C counted along it
α1β2P206Cγ2 GABAR, sequence (P18508 39-466): as the sequence (P18508 39-466) above

For the compound `CCc1c(C(=O)OC)ncc2[nH]c3cc(OC)c(OC)cc3c12` [DMCM, 3-carbomethoxy-4-ethyl-6,7-dimethoxy-β-carboline], the “inhibition of IGABA (IGABA+DRUG/IGABA)” value in assay [1] was determined as 0.45 fold; in assay [3] (100nM DMCM, saturating), 0.45 fold. Further, the “maximal attenuation of GABA current (IGABA+DRUG/IGABA)” value in assay [2] was 0.62 fold.

For the compound `CCOC(=O)c1ncn2c1CN(C)C(=O)c1cc(F)ccc1-2` [flumazenil], the “effect on GABA-gated current” value in assay [3] (1μM flumazenil) and in assay [4] was “had no effect” throughout.

The record behind these values is article PMC3026633 (Neuropharmacology, 2010).
